# Measured values taken from patent US8735444B2, “Fluorinated rhodamines as photostable fluorescent dyes for labelling and imaging techniques” (Max-Planck-Gesellschaft zur Foerderung der Wissenschaften …, priority 2009, dated 2014).
# Like-named read-outs stand apart in the source and are kept apart here. Marks after values point to notes of the source that are not given here.
# Columns and labels:
# [1] = Spectral properties of the fluorinated rhodamines (absorption, emission, quantum yield, lifetime); assay type: physicochemical
# Source text: Extinction coefficients (of the long wavelength maximum) which are lower than ca. 8×10^4 M^−1 cm^−1 indicate the presence of the closed non-fluorescent form.
# [2] = tested on: living mammalian cells (PtK2); test: Membrane-permeation experiments in living cells, epifluorescence microscope; assay type: cell-based; conditions: for Structures stained in living cells: 15 minutes
# Procedure: FIG. 9. Membrane-permeation experiments of the presented dyes. Living mammalian cells (PtK2) were incubated for 15 minutes with a 50 μg dye/ml solution. The subcellular localization of the dye was imaged in an epifluorescence microscope. A: 46-H—CH2 CF3—H—H (16); B: 42-COOH (15); C: 23; D: 37-Me-Me-H (27); E: 42-H (14)-methylester; F: 33-H—H (18).
# The most important prerequisite for fluorophores used in these labeling strategies is that sufficient amounts of it need to pass cellular membrane(s) to reach the target protein. In order to asses the permeability of the cell membrane to the fluorescent dyes described in the presented invention, living mammalian cells (PtK2) previously grown overnight on cover slips, were first subjected to either 500 μg dye/ml or 50 μg dye/ml in growth medium for 15 minutes. (The amount of dye used for labeling of SNAP-fusion proteins is below 5 μg dye/ml.) Then, the cells were washed with growth medium (without dye) for 15 minutes, and imaged using an epifluorescence microscope.
# [3] = set-up: ε × 10^−4: unit not given beside the values; conditions: cited from earlier work
# [4] = a + b (aqueous buffer at pH 7 + methanol)
# [5] = adding methanol to an aqueous buffer
# [6] = value for the closed form, methanol
# [7] = solvent not stated, spectra pH-dependent at pH < 5
ABSORPTION λMAX ([1]; aqueous buffer at pH 7),EMISSION λMAX ([1]; aqueous buffer at pH 7),EMISSION λMAX ([1]; methanol) [nm],ΦFL ([1]; aqueous buffer at pH 7),τFL ([1]; aqueous buffer at pH 7) [ns],ABSORPTION ε ([1]; methanol) [M⁻¹ cm⁻¹],ABSORPTION λMAX ([1]; methanol),Compound,Structures stained in living cells ([2]; 500 μg dye/ml),other results
525 nm,554 nm,589,,,,,"2,7-Difluoro-5′(6′)-methoxycarbonyl-N,N,N′,N′-tetramethyl-rhodamine [Compound 28]",Red cytoplasmatic and mitochondrial,"ABSORPTION λMAX [1, 4]: 558 nm; bathochromic shift in absorption maximum [1, 5]: 23 nm; bathochromic shift in emission maximum [1, 5]: 35 nm; ABSORPTION ε ([1]; aqueous buffer at pH 7): 31000 M⁻¹ cm⁻¹"
,,,,,,,5(6)-carboxyfluorescein [Compound 7],,"ε × 10^−4 ([3]; H2O, pH = 9): 7.8^4*; λem ([3]; H2O, pH = 9): 517^4* nm; λmax ([3]; H2O, pH = 9): 492^4* nm"
,,,,,,,5(6)-carboxyrhodamine 110 [Compound 2],,ε × 10^−4 ([3]; MeOH): 7.8; λem ([3]; MeOH): 532 nm; λmax ([3]; MeOH): 504 nm
490 nm,514 nm,517,0.97,4.1,32000,502 nm,"5′ (6′)-Carboxy-2,7-difluoro-4,5-disulforhodamine [Compound 13]",Nearly no stain visible.,Structures stained in living cells ([2]; 50 μg dye/ml): Dim cytoplasmatic stain with dots
,,,,,,,"5′ (6′)-Carboxy-2,7-difluoro-N,N′-dimethyl-N,N-bis(2,2,2-trifluoroethyl)rhodamine [Compound 26]",Cellular stain visible; bright,"ABSORPTION λMAX [1, 4]: 523 nm; ABSORPTION λMAX [1, 6]: 291 nm"
496 nm,522 nm,520,0.89,3.8,,498 nm,"5′ (6′)-carboxy-2,7-difluoro-N,N′-bis(2,2,2-trifluoroethyl)-rhodamine [Compound 19]",,ABSORPTION ε ([1]; aqueous buffer at pH 7): 53000 M⁻¹ cm⁻¹; Structures stained in living cells ([2]; 50 μg dye/ml): Dim cellular stain with dots
"515^a, 515^b nm",543 nm,538,0.86,4.1,56000,"515^a, 515^b nm","5′(6′)-Carboxy-2,7-difluoro-N,N′-dimethylrhodamine [Compound 24]",Cellular stain visible; bright,
496 nm,522 nm,523,0.92,4.0,50000,498 nm,"5′(6′)-Carboxy-2,7-difluororhodamine [Compound 11]",Dye exclusion! No dye within cell,
509 nm,533 nm,541,0.86,3.3,42000,517 nm,"5′,(6′)-Carboxy-2,7-difluoro-N,N″-bis(2,2,2-trifluoroethyl)-4,5-disulforhodamine [Compound 21]",Cytoplasmatic and mitochondrial,Structures stained in living cells ([2]; 50 μg dye/ml): Dim cytoplasmatic stain with dots
501 nm,525 nm,524,0.95,4.1,,500 nm,"O=C(O)c1ccc2c(c1)C1(OC2=O)c2ccc(NCC(F)(F)F)cc2Oc2cc(NCC(F)(F)F)ccc21 [15 (42-COOH), 5′-Carboxy-N,N′-bis(2,2,2-trifluoroethyl)rhodamine]",,"ABSORPTION ε ([1]; aqueous buffer at pH 7): 85000 M⁻¹ cm⁻¹; Structures stained in living cells ([2]; 50 μg dye/ml): Dim cytoplasmatic stain with dots; Structures stained in living cells ([2]; 500 μg dye/ml, listed as 42-COOH (15)): Bright cytoplasmatic stain visible."
501 nm,523 nm,522,0.93,,,497 nm,"O=C(O)c1ccc2c(c1)C1(OC2=O)c2ccc(NCC(F)(F)F)cc2Oc2cc(NCC(F)(F)F)ccc21 [15 (43-COOH), 6′-carboxy-N,N′-bis(2,2,2-trifluoroethyl)rhodamine]",,"ABSORPTION ε ([1]; aqueous buffer at pH 7): 88000 M⁻¹ cm⁻¹; Structures stained in living cells ([2]; 500 μg dye/ml, listed as 43-COOH (15)): Nearly no stain visible."
,,,,,,,"Cl.N=c1ccc2c(-c3ccccc3C(=O)O)c3ccc(N)cc3oc-2c1 [Compound 1, rhodamine 110]",,"Φfl ([3]; basic EtOH): 0.92; λem ([3]; basic EtOH): 524 nm; ε × 10^−4 ([3]; water, pH = 7): 8.3; λem ([3]; water, pH = 7): 520** nm; λmax ([3]; water, pH = 7): 496 nm"
,,,,,,,Nc1cc2c(cc1Cl)C1(OC(=O)c3ccccc31)c1cc(Cl)c(N)cc1O2 [Compound 5],,"shift of the absorption and emission curves to the red ([3]; compared with compounds 1, 3 and 4): ca. 10 nm; ε × 10^−4 ([3]; water, pH = 7): 7.1; λem ([3]; water, pH = 7): 525 nm; λmax ([3]; water, pH = 7): 502 nm"
,,,,,,,O=C1OC2(c3cc(F)c(O)cc3Oc3cc(O)c(F)cc32)c2ccccc21 [Compound 8],,"τ ([3]; 20° C.): ^7*τ = 4.1 ns (20° C.).; ε × 10^−4 ([3]; H2O, pH = 9): 8.5^4*; λem ([3]; H2O, pH = 9): 518^4* nm; λmax ([3]; H2O, pH = 9): 492^4* nm"
,,,,,,,O=C(O)CSc1c(F)c(F)c(C(=O)O)c(-c2c3cc(F)c(=O)cc-3oc3cc(O)c(F)cc23)c1F [Compound 9],,"bathochromic shift ([3]; compared with compounds 7 and 8): ca. 10 nm; ε × 10^−4 [3, 7]: 8.6; λem [3, 7]: 526 nm; λmax [3, 7]: 506 nm"
494 nm,520 nm,522,0.87,3.9,41000,498 nm,"Nc1cc2c(cc1F)C1(OC(=O)c3ccccc31)c1cc(F)c(N)cc1O2 [Compound 10, 2,7-Difluororhodamine]",High background staining visible.,
494 nm,521 nm,519,1.00,3.8,41000,500 nm,"O=C1OC2(c3cc(F)c(NCC(F)(F)F)cc3Oc3cc(NCC(F)(F)F)c(F)cc32)c2ccccc21 [Compound 18, 2,7-Difluoro-N,N′-bis(2,2,2-trifluoroethyl)rhodamine]",,"ABSORPTION λMAX [1, 6]: (292)^2b nm; Structures stained in living cells ([2]; 50 μg dye/ml): Dim cytoplasmatic stain with bright"
513 nm,539 nm,537,0.87,4.0,56000,511 nm,"CNc1cc2c(cc1F)C1(OC(=O)c3ccccc31)c1cc(F)c(NC)cc1O2 [Compound 23, 2,7-Difluoro-N,N′-dimethylrhodamine]",Mitochondrial stain visible. Bright,Structures stained in living cells ([2]; 50 μg dye/ml): Dim cytoplasmatic stain with dots
,,,,,,,"CN(CC(F)(F)F)c1cc2c(cc1F)C1(OC(=O)c3ccccc31)c1cc(F)c(N(C)CC(F)(F)F)cc1O2 [Compound 25, 2,7-Difluoro-N,N-dimethyl-N,N-bis(2,2,2-trifluoromethyl)-rhodamine]",Only dim stain visible.,"fluorescence efficiency of the open acidic form ([1]; acidic solutions): relatively low fluorescence efficiency; ΦFL ([1]; measured at pH 1): (0.20)^1; τFL ([1]; measured at pH 1): (1.2)^1 ns; ABSORPTION ε ([1]; measured at pH 1, aqueous): (3.2)^1a (M^−1 cm^−1) × 10^−4; ABSORPTION λMAX ([1]; measured at pH 1, aqueous): 528 nm; EMISSION λMAX ([1]; measured at pH 1, aqueous): (557)^1a nm; colour of solutions ([1]; methanol, water and neutral buffers): colorless solutions; ABSORPTION λMAX [1, 6]: 300 nm"
499^a nm,522^ nm,,0.88,3.9,,,"N,N-Bis(2,2,2-trifluoroethyl)rhodamine [Compound 14]",Nearly no stain visible.,ABSORPTION ε ([1]; aqueous buffer at pH 7): 81000 M⁻¹ cm⁻¹

Compound,ABSORPTION λMAX ([1]; aqueous buffer at pH 7),EMISSION λMAX ([1]; aqueous buffer at pH 7),EMISSION λMAX ([1]; methanol) [nm],ΦFL ([1]; aqueous buffer at pH 7),τFL ([1]; aqueous buffer at pH 7) [ns],ABSORPTION ε ([1]; methanol) [M⁻¹ cm⁻¹],ABSORPTION λMAX ([1]; methanol),Structures stained in living cells ([2]; 500 μg dye/ml),other results
"CN(C)c1cc2c(cc1F)C1(OC(=O)c3ccccc31)c1cc(F)c(N(C)C)cc1O2 [Compound 27, 2,7-Difluoro-N,N,N′,N′-tetramethylrhodamine]",554 nm,586 nm,576,0.02,3.3,,546 nm,Red cytoplasmatic and mitochondrial,"fluorescence in aqueous buffer ([1]; aqueous buffer): nearly non-fluorescent; ABSORPTION ε ([1]; aqueous buffer at pH 7): 50000 M⁻¹ cm⁻¹; fluorescence signal inside the living cells ([2]; compared with aqueous buffer, Example 12, FIG. 9D): considerably stronger"
